Assay results published in publication PMC12467433, “Isoniazid-Derived Hydrazones Featuring Piperazine/Piperidine Rings: Design, Synthesis, and Investigation of Antitubercular Activity” (Biomolecules, 2025).
In brackets after ≈: the same amount, converted by molar mass.

Tests used:
[1] = system: INH-resistant Mtb clinical isolate with inhA promoter mutation; format: cell-based, Mycobacterium tuberculosis
[2] = system: INH-resistant Mtb clinical isolate with katG S315T mutation; format: cell-based, Mycobacterium tuberculosis

Compound	MIC [1] [µM]	MIC [2] [µM]
NNC(=O)c1ccncc1 [INH, isonicotinic acid hydrazide, reference compound]	1.56 (≈ 0.214 µg/mL)	6.25 (≈ 0.857 µg/mL)
CN1CCN(c2ccc(C=NNC(=O)c3ccncc3)cc2)CC1 [IP10, N′-(4-(4-Methylpiperazin-1-yl)benzylidene)isonicotinohydrazide]	1.56 (≈ 0.505 µg/mL)	25 (≈ 8.09 µg/mL)
COc1ccc(N2CCN(c3ccc(C=NNC(=O)c4ccncc4)cc3)CC2)cc1 [IP7, N′-(4-(4-(4-Methoxyphenyl)piperazin-1-yl)benzylidene)isonicotinohydrazide]	25 (≈ 10.4 µg/mL)	100 (≈ 41.5 µg/mL)
CCOC(=O)C1CCN(c2ccc(C=NNC(=O)c3ccncc3)cc2)CC1 [IP12, Ethyl 1-(4-((2-isonicotinoylhydrazono)methyl)phenyl)piperidine-4-carboxylate]	1.56 (≈ 0.593 µg/mL)	25 (≈ 9.51 µg/mL)
O=C(NN=Cc1ccc(N2CCN(c3ccccn3)CC2)cc1)c1ccncc1 [IP8, N′-(4-(4-(Pyridin-2-yl)piperazin-1-yl)benzylidene)isonicotinohydrazide]	1.56 (≈ 0.603 µg/mL)	50 (≈ 19.3 µg/mL)
O=C(NN=Cc1ccc(N2CCN(C3CCCCC3)CC2)cc1)c1ccncc1 [IP11, N′-(4-(4-Cyclohexylpiperazin-1-yl)benzylidene)isonicotinohydrazide]	0.78 (≈ 0.305 µg/mL)	12.5 (≈ 4.89 µg/mL)
O=C(NN=Cc1ccc(N2CCN(c3ncccn3)CC2)cc1)c1ccncc1 [IP9, N′-(4-(4-(Pyrimidin-2-yl)piperazin-1-yl)benzylidene)isonicotinohydrazide]	3.12 (≈ 1.21 µg/mL)	25 (≈ 9.69 µg/mL)
NC(=O)C1CCN(c2ccc(C=NNC(=O)c3ccncc3)cc2)CC1 [IP13, 1-(4-((2-Isonicotinoylhydrazono)methyl)phenyl)piperidine-4-carboxamide]	1.56 (≈ 0.548 µg/mL)	50 (≈ 17.6 µg/mL)
